Test results: article PMC8004798, “Identification of Bioactive Compounds from Marine Natural Products and Exploration of Structure-Activity Relationships (SAR)” (Antibiotics, 2021)
Values after ≈ are worked out from the molar mass of the structure shown. Like-named read-outs stand apart in the source and are kept apart here.

Columns and labels:
[1] = system: methicillin-resistant Staphylococcus aureus (MRSA); test: Resazurin bacterial inhibition assay (MIC), MRSA; type: cell-based; settings: 18 h, read-out: Minimum Inhibitory Concentration MRSA
E. coli EC958 = test: Resazurin bacterial inhibition assay (MIC), E. coli; type: cell-based; settings: read-out: Minimum Inhibitory Concentration E. coli
P. aeruginosa PAO1 = test: Resazurin bacterial inhibition assay (MIC), P. aeruginosa; type: cell-based; settings: Pseudomonas aeruginosa, read-out: Minimum Inhibitory Concentration P. aeruginosa
M. tuberculosis H37Rv = test: Resazurin bacterial inhibition assay (MIC), M. tuberculosis; type: cell-based; settings: Mycobacterium tuberculosis, 168 h, commercial compounds, 7 days, read-out: Minimum Inhibitory Concentration M. tuberculosis H37Rv
[2] = system: human hepatocellular carcinoma cells (Hep-G2); test: Resazurin cytotoxicity assay, HepG2
From the text: (§1) To identify marine samples with activity against MRSA, 1434 compounds from the AIMS Bioresources Library (provided by the Queensland Compound Library, Brisbane, Australia, now called Compounds Australia) were screened in a resazurin cell viability assay.
(§2) Toxicity of AIMS Extract Library. Human alveolar epithelial cells (A549), Madin-Darby canine kidney epithelial cells (MDCK), human leukaemia cells (THP-1), human hepatocellular carcinoma cells (Hep-G2) and human embryonic kidney cells 293 (HEK293) were grown and differentiated in complete RPMI (Roswell Park Memorial Institute Medium) and DMEM (Dulbecco’s Modified Eagle’s medium) tissue culture media (RPMIc and DMEMc, from the Thermo Fisher Scientific, Waltham, MA, USA) by adding 10% FBS, 200 µM L-glutamine and 1 mM HEPES buffer solution. To determine toxicity of the AIMS extract library, 2 × 10^5 of each cell type were added to a 96-well plate and left for 48 h in a humidified 5% CO2 incubator at 37 °C to adhere. Extract samples at a final concentration of 0.5 mg mL^−1 were added to the wells, then the plates incubated for 4 more days in a humidified 5% CO2 incubator at 37 °C. Then, resazurin (10 μL of 0.05% w/v) was added and after 4 h, fluorescence measured as described previously. The cell viability was calculated as percentage fluorescence relative to untreated cells.

[3] = system: human embryonic kidney cells 293 (HEK293); test: Resazurin cytotoxicity assay, HEK 293
From the text: as §1, §2

[4] = system: Human alveolar epithelial cells (A549); test: Resazurin cytotoxicity assay, A549
From the text: as §1, §2

[5] = system: human leukaemia cells (THP-1); test: Resazurin cytotoxicity assay, THP-1
From the text: as §1
as §2, with “Extract samples at a final concentration of 0.5 mg mL^−1 were added to the wells, then the plates incubated for 4 more days in a humidified 5% CO2 incubator at 37 °C.” left out

[6] = Staphylococcus aureus, MRSA, commercial compounds, resazurin
[7] = Escherichia coli, EC958, commercial compounds, 18 h, resazurin
[8] = PAO1, commercial compounds, 18 h, resazurin
[9] = commercial compounds, unit from Table 8 head
[10] = commercial compounds, unit from Table 8 head, listed as 1,10 phenanthroline

Row | Compound | MIC [1, 6] | MIC (E. coli EC958; [7]) | MIC (P. aeruginosa PAO1; [8]) | MIC (M. tuberculosis H37Rv) | Minimum Toxicity Concentration HepG2 [2, 9] | Minimum Toxicity Concentration HEK 293 [3, 9] | Minimum Toxicity Concentration A549 [4, 9] | Minimum Toxicity Concentration THP-1 [5, 9] | MIC ([1]; commercial compounds, resazurin) | Minimum Toxicity Concentration HepG2 ([2]; human, 4 days) | Minimum Toxicity Concentration HEK 293 ([3]; human, 4 days) | Minimum Toxicity Concentration A549 ([4]; human, 4 days) | Minimum Toxicity Concentration THP-1 ([5]; human, 4 days) | Minimum Toxicity Concentration HEK 293 [3, 10] | Minimum Toxicity Concentration A549 [4, 10] | Minimum Toxicity Concentration THP-1 [5, 10] | MIC (E. coli EC958; commercial compounds, 18 h, resazurin) | MIC ([1]; Staphylococcus aureus, MRSA) | MIC (E. coli EC958; Escherichia coli, EC958, 18 h) | MIC (P. aeruginosa PAO1; PAO1, 18 h)
1 | c1cnc2c(c1)ccc1ncccc12 [1,7-phenanthroline] | 25 µM (≈ 4.51 µg/mL) | 25 µM (≈ 4.51 µg/mL) | 2.5 µM (≈ 0.451 µg/mL) | > 100 µM | >100 µM | >100 µM | >100 µM | >100 µM |  |  |  |  |  |  |  |  |  |  |  | 
2 | O=C1C(=O)c2cccnc2-c2ncccc21 [1,10-Phenanthroline-5,6-dione] | 0.04 µM (≈ 0.00841 µg/mL) | 0.04 µM (≈ 0.00841 µg/mL) | 0.04 µM (≈ 0.00841 µg/mL) | 0.1 µM (≈ 0.021 µg/mL) |  |  |  |  | 0.04 µM (≈ 0.00841 µg/mL) | 0.1 µM | 0.1 µM | 0.1 µM | 0.1 µM |  |  |  |  |  |  | 
3 | c1cnc2c(c1)ccc1cccnc12 [1,10-phenanthroline] | > 100 µM | 50 µM (≈ 9.01 µg/mL) | 0.3 µM (≈ 0.0541 µg/mL) | 0.1 µM (≈ 0.018 µg/mL) | 0.1 µM | 50 µM | 3 µM | 0.1 µM |  |  |  |  |  | 0.1 µM | 50 µM | 3 µM |  |  |  | 
4 | c1ccc(-c2ccccn2)nc1 [2,2′-Bipyridine] | > 100 µM | > 100 µM | > 100 µM | 0.1 µM (≈ 0.0156 µg/mL) | 3 µM | 3 µM | >100 µM | 50 µM |  |  |  |  |  |  |  |  |  |  |  | 
5 | Cc1cc(-c2ccccc2)c2ccc3c(-c4ccccc4)cc(C)nc3c2n1 [2,9-Dimethyl-4,7-diphenyl-1,10-phenanthroline] | 25 µM (≈ 9.01 µg/mL) | 0.78 µM (≈ 0.281 µg/mL) | 50 µM (≈ 18 µg/mL) | 50 µM (≈ 18 µg/mL) |  |  |  |  |  | 0.1 µM | 0.1 µM | >100 µM | >100 µM |  |  |  |  |  |  | 
6 | Cc1cnc2c(ccc3c(C)c(C)cnc32)c1C [3,4,7,8-Tetramethyl-1,10-phenanthroline] | 0.3 µM (≈ 0.0709 µg/mL) | 0.3 µM (≈ 0.0709 µg/mL) | 0.3 µM (≈ 0.0709 µg/mL) | 0.1 µM (≈ 0.0236 µg/mL) | 0.1 µM | 0.1 µM | 0.1 µM | 0.1 µM |  |  |  |  |  |  |  |  |  |  |  | 
7 | Cc1ccnc2c1ccc1c(C)ccnc12 [4,7-Dimethyl-1,10-Phenanthrolin] | 0.3 µM (≈ 0.0625 µg/mL) | 0.3 µM (≈ 0.0625 µg/mL) | 0.1 µM (≈ 0.0208 µg/mL) | 0.1 µM (≈ 0.0208 µg/mL) |  |  |  |  |  | 0.1 µM | 0.1 µM | 0.1 µM | 0.1 µM |  |  |  |  |  |  | 
8 | c1cnc2ccc3ncccc3c2c1 [4,7-phenanthroline] | 1.5 µM (≈ 0.27 µg/mL) | 1.5 µM (≈ 0.27 µg/mL) | 2.5 µM (≈ 0.451 µg/mL) | 2.5 µM (≈ 0.451 µg/mL) | >100 µM | >100 µM | >100 µM | >100 µM |  |  |  |  |  |  |  |  |  |  |  | 
9 | Cc1c(C)c2cccnc2c2ncccc12 [5,6-Dimethyl-1,10-phenanthroline] | 0.3 µM (≈ 0.0625 µg/mL) | 0.78 µM (≈ 0.162 µg/mL) | > 100 µM | 0.1 µM (≈ 0.0208 µg/mL) | 0.1 µM | 0.1 µM | 0.1 µM | 0.1 µM |  |  |  |  |  |  |  |  |  |  |  | 
10 | O=[N+]([O-])c1cc2cccnc2c2ncccc12 [5-Nitro-1,10-phenanthroline] | 0.09 µM (≈ 0.0203 µg/mL) | 0.78 µM (≈ 0.176 µg/mL) | > 100 µM | 0.1 µM (≈ 0.0225 µg/mL) |  |  |  |  |  | 0.1 µM | 0.1 µM | 12 µM | 0.1 µM |  |  |  |  |  |  | 
11 | c1ccc(-c2ccnc3c2ccc2c(-c4ccccc4)ccnc23)cc1 [Bathophenanthroline] | 0.09 µM (≈ 0.0299 µg/mL) | 0.019 µM (≈ 0.00632 µg/mL) | 0.03 µM (≈ 0.00997 µg/mL) | 0.01 µM (≈ 0.00332 µg/mL) |  |  |  |  |  | 1.5 µM | 25 µM | 3 µM | 13 µM |  |  |  | 0.019 µM (≈ 0.00632 µg/mL) |  |  | 
12 | NCc1ccccc1 [Benzylamine] | > 100 µM | > 100 µM | > 100 µM | > 100 µM |  |  |  |  |  | >100 µM | >100 µM | >100 µM | >100 µM |  |  |  |  |  |  | 
13 | c1ccc(CNCc2ccccc2)cc1 [Dibenzylamine] | > 100 µM | > 100 µM | 12.5 µM (≈ 2.47 µg/mL) | > 100 µM |  |  |  |  |  | >100 µM | >100 µM | >100 µM | >100 µM |  |  |  |  |  |  | 
14 | C1CCC(NC2CCCCC2)CC1 [Dicyclohexylamine] | > 100 µM | > 100 µM | 12.5 µM (≈ 2.27 µg/mL) | > 100 µM | >100 µM | >100 µM | >100 µM | >100 µM |  |  |  |  |  |  |  |  |  |  |  | 
15 | CCCCCCCCNCCCCCCCC [Dioctylamine] | 6.2 µM (≈ 1.5 µg/mL) | 6.2 µM (≈ 1.5 µg/mL) | 3 µM (≈ 0.724 µg/mL) | > 100 µM | >100 µM | >100 µM | >100 µM | >100 µM |  |  |  |  |  |  |  |  |  |  |  | 
16 | c1ccc2cnccc2c1 [Isoquinoline] | > 100 µM | > 100 µM | > 100 µM | 0.1 µM (≈ 0.0129 µg/mL) |  |  |  |  |  | 3 µM |  |  |  |  |  |  |  |  |  | 
17 | Cc1ccc2ccc3ccc(C)nc3c2n1 [Neocuproine hemihydrate] | 0.09 µM | 0.3 µM | 0.04 µM | 0.1 µM | 0.1 µM | 0.1 µM | 6.2 µM | 12 µM |  |  |  |  |  |  |  |  |  |  |  | 
18 | c1ccc2ncccc2c1 [Quinoline] | > 100 µM | > 100 µM | > 100 µM | 0.1 µM (≈ 0.0129 µg/mL) |  |  |  |  |  | 3 µM |  | 50 µM |  |  |  |  |  |  |  | 
19 | c1ccc(CN(Cc2ccccc2)Cc2ccccc2)cc1 [Tribenzylamine] | > 100 µM | > 100 µM | 6.5 µM (≈ 1.87 µg/mL) | > 100 µM | >100 µM | >100 µM | >100 µM | >100 µM |  |  |  |  |  |  |  |  |  |  |  | 
20 | CCCCN(CCCC)CCCC [Tributylamine] |  |  |  | > 100 µM | >100 µM | >100 µM | >100 µM | >100 µM |  |  |  |  |  |  |  |  |  | > 100 µM | > 100 µM | 50 µM (≈ 9.27 µg/mL)
21 | CCN(CC)CC [Triethylamine] | > 100 µM | > 100 µM | > 100 µM | > 100 µM |  |  |  |  |  | >100 µM | >100 µM | >100 µM | >100 µM |  |  |  |  |  |  | 
22 | CCCCCCCCN(CCCCCCCC)CCCCCCCC [Trioctylamine] | 12.5 µM (≈ 4.42 µg/mL) | 25 µM (≈ 8.84 µg/mL) | 25 µM (≈ 8.84 µg/mL) | 0.02 µM (≈ 0.00707 µg/mL) | >100 µM | 6 µM | 50 µM | 3.1 µM |  |  |  |  |  |  |  |  |  |  |  | 
